What follows are compounds tested against human TRPA1 (Homo sapiens (Human), UniProt O75762) (assay: In vitro inhibition of human TRPA1, whole cell patch configuration). Conditions: current activation 10 μM AITC, tested concentrations 320 pM to 3.2 μM, read-out: hTRPA1 IC50.
Sequence of human TRPA1 (O75762 whole entry): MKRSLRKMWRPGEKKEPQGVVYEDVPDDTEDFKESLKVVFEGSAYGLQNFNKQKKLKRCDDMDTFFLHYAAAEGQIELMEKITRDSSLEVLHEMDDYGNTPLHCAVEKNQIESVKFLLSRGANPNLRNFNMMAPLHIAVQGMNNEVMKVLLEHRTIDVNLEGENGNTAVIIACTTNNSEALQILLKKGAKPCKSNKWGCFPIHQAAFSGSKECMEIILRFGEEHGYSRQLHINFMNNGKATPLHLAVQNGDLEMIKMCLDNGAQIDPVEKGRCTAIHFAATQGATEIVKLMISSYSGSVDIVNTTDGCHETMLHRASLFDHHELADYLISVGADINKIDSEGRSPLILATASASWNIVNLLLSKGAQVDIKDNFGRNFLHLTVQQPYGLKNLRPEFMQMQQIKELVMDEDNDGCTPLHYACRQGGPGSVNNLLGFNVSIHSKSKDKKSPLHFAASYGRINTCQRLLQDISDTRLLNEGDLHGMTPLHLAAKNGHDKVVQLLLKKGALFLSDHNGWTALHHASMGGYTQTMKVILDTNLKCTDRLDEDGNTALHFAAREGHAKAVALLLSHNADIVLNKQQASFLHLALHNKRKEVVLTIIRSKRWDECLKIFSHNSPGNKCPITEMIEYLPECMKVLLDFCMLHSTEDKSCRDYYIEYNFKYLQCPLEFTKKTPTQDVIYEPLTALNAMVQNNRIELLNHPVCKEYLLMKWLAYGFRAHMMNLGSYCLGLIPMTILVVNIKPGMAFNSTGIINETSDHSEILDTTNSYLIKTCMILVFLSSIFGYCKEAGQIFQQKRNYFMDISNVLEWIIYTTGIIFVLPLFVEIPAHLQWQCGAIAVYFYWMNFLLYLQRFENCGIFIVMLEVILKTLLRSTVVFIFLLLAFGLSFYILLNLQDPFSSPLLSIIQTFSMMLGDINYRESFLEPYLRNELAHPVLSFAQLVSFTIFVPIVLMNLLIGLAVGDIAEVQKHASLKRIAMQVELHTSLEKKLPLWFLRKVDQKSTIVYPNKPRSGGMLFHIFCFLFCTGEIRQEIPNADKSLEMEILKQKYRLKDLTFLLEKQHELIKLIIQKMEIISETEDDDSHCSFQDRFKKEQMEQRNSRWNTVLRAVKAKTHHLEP
Format: cell-based
Protocol: All currents were recorded in whole-cell configuration using EPC-9 and EPC-10 amplifiers and Patchmaster software (HEKA) or similar. […] The standard bath solution contained 150 mM NaCl, 10 mM HEPES, 10 mM glucose, 4.5 mM KCl, 1 mM EGTA, 3 mM MgCl2, with pH adjusted to 7.4 with NaOH. In some instances, 2 mM CaCl2 was added in place of EGTA and the concentration of MgCl2 was reduced to 1 mM.
Data were collected either by continuous recordings at −60 mV or by applying voltage ramps from a holding potential of −40 mV every 4 s. Continuous recordings were collected at 400 Hz and digitally filtered off-line at 10 Hz for presentation. Voltage ramps were applied from −100 mV or −80 mV to +100 mV or +80 mV over the course of 400 ms, and data were collected at 10 kHz and filtered at 2.9 kHz. Inward and outward currents were analyzed from the ramps at −80 and 80 mV, respectively. Liquid junction potential correction was not used.
Solutions were switched using a gravity-fed continuous focal perfusion system. To achieve rapid temperature changes, two temperature control, and perfusion systems were employed simultaneously. […] Temperatures were confirmed using a thermistor (Warner Instruments, TA-29), with temperatures at the recorded cell estimated to be within +/−2° C. of those reported.
The antagonist effects of compounds of Formula (I) against human TRPA1 (“hTRPA1”) in a whole cell patch configuration were evaluated using the in vitro assay described above.
C[C@@H](C(=O)Nc1cccc(-c2ccc(C(F)(F)F)nc2)n1)n1cnc2c1c(=O)n(Cc1ccccn1)c(=O)n2C [Compound 1, (2S)-2-(3-methyl-2,6-dioxo-1-(pyridin-2-ylmethyl)-1,2,3,6-tetrahydropurin-7-yl)-N-(6-(6-(trifluoromethyl)pyridin-3-yl)pyridin-2-yl)propanamide] was tested, and the IC50 was 28 nM.
Compound CC(=O)Cn1c(=O)c2c(ncn2[C@@H](C)C(=O)Nc2cccc(-c3ccc(C(F)(F)F)nc3)n2)n(C)c1=O [Compound 2, (S)-2-(3-methyl-2,6-dioxo-1-(2-oxopropyl)-2,3-dihydro-1H-purin-7(6H)-yl)-N-(6′-(trifluoromethyl)-[2,3′-bipyridin]-6-yl)propanamide] has an IC50 of 21 nM.
CC(=O)Cn1c(=O)c2c(ncn2[C@@H](C)C(=O)Nc2cncc(-c3ccc(C(F)(F)F)nc3)n2)n(C)c1=O [Compound 3, (S)-2-(3-methyl-2,6-dioxo-1-(2-oxopropyl)-2,3-dihydro-1H-purin-7(6H)-yl)-N-(6-(6-(trifluoromethyl)pyridin-3-yl)pyrazin-2-yl)propanamide] showed an IC50 of 49 nM.
In the case of CC(=O)Cn1c(=O)c2c(ncn2[C@@H](C)C(=O)Nc2cccc(-c3cnc(C(F)(F)F)nc3)n2)n(C)c1=O [Compound 4, (S)-2-(3-methyl-2,6-dioxo-1-(2-oxopropyl)-2,3-dihydro-1H-purin-7(6H)-yl)-N-(6-(2-(trifluoromethyl)pyrimidin-5-yl)pyridin-2-yl)propanamide], the IC50 is reported as 25 nM.
Compound C[C@@H](C(=O)Nc1cccc(-c2cnc(C(F)(F)F)nc2)n1)n1cnc2c1c(=O)n(Cc1ccccn1)c(=O)n2C [Compound 5, (S)-2-(3-methyl-2,6-dioxo-1-(pyridin-2-ylmethyl)-2,3-dihydro-1H-purin-7(6H)-yl)-N-(6-(2-(trifluoromethyl)pyrimidin-5-yl)pyridin-2-yl)propanamide] has an IC50 of 39 nM.
CC(=O)Cn1c(=O)c2c(ncn2[C@@H](C)C(=O)Nc2cncc(-c3cnc(C(F)(F)F)nc3)n2)n(C)c1=O [Compound 6, (S)-2-(3-methyl-2,6-dioxo-1-(2-oxopropyl)-2,3-dihydro-1H-purin-7(6H)-yl)-N-(6-(2-(trifluoromethyl)pyrimidin-5-yl)pyrazin-2-yl)propanamide] gave an IC50 of 39 nM.
Work on C[C@@H](C(=O)Nc1cncc(-c2cnc(C(F)(F)F)nc2)n1)n1cnc2c1c(=O)n(Cc1ccccn1)c(=O)n2C [Compound 8, (S)-2-(3-methyl-2,6-dioxo-1-(pyridin-2-ylmethyl)-2,3-dihydro-1H-purin-7(6H)-yl)-N-(6-(2-(trifluoromethyl)pyrimidin-5-yl)pyrazin-2-yl)propanamide] yielded an IC50 of 44 nM.
Work on C[C@@H](C(=O)Nc1cncc(-c2ccc(C(F)(F)F)nc2)n1)n1cnc2c1c(=O)n(Cc1ccccn1)c(=O)n2C [Compound 9, (2S)-2-(3-methyl-2,6-dioxo-1-(pyridin-2-ylmethyl)-1,2,3,6-tetrahydropurin-7-yl)-N-(6-(6-(trifluoromethyl)pyridin-3-yl)pyrazin-2-yl)propanamide] yielded an IC50 of 59 nM.
CC(C(=O)Nc1cccc(-c2cnc(C(F)(F)F)nc2)n1)n1cnc2c1c(=O)n(CC#N)c(=O)n2C (centres unmarked) [Compound 10, 2-(1-(cyanomethyl)-3-methyl-2,6-dioxo-2,3-dihydro-1H-purin-7(6H)-yl)-N-(6-(2-(trifluoromethyl)pyrimidin-5-yl)pyridin-2-yl)propanamide] was tested, and the IC50 was 24 nM.
C[C@@H](C(=O)Nc1cccc(-c2cnc(N3CC4CC4C3)nc2)n1)n1cnc2c1c(=O)n(CC#N)c(=O)n2C (stereo partly drawn) [Compound 11, (2S)—N-(6-(2-(3-azabicyclo[3.1.0]hexan-3-yl)pyrimidin-5-yl)pyridin-2-yl)-2-(1-(cyanomethyl)-3-methyl-2,6-dioxo-2,3-dihydro-1H-purin-7(6H)-yl)propanamide] gave an IC50 of 5 nM.
C[C@@H](C(=O)Nc1cncc(-c2cnc(N3CC4CC4C3)nc2)n1)n1cnc2c1c(=O)n(CC#N)c(=O)n2C (some centres unmarked) [Compound 12] was tested, and the IC50 was 7 nM.
Work on CCC(=O)Cn1c(=O)c2c(ncn2[C@@H](C)C(=O)Nc2cncc(-c3cnc(N4CC5CC5C4)nc3)n2)n(C)c1=O (stereo partly drawn) [Compound 13, (2S)—N-(6-(2-(3-azabicyclo[3.1.0]hexan-3-yl)pyrimidin-5-yl)pyrazin-2-yl)-2-(3-methyl-2,6-dioxo-1-(2-oxobutyl)-2,3-dihydro-1H-purin-7(6H)-yl)propanamide] yielded an IC50 of 8 nM.
In the case of CC(=O)Cn1c(=O)c2c(ncn2[C@@H](C)C(=O)Nc2csc(-c3cnc(N4CCC[C@H]4C(F)(F)F)nc3)n2)n(C)c1=O [Compound 16, (S)-2-(3-methyl-2,6-dioxo-1-(2-oxopropyl)-2,3-dihydro-1H-purin-7(6H)-yl)-N-(2-(2-((S)-2-(trifluoromethyl)pyrrolidin-1-yl)pyrimidin-5-yl)thiazol-4-yl)propanamide], the IC50 is reported as 2 nM.
In the case of CCC(=O)Cn1c(=O)c2c(ncn2C(C)C(=O)Nc2ccnc(-c3cnc(N4CC5CC5C4)nc3)n2)n(C)c1=O (centres unmarked) [Compound 17, N-(2′-(3-azabicyclo[3.1.0]hexan-3-yl)-2,5′-bipyrimidin-4-yl)-2-(3-methyl-2,6-dioxo-1-(2-oxobutyl)-2,3-dihydro-1H-purin-7(6H)-yl)propanamide], the IC50 is reported as 8 nM.
Work on CC(=O)Cn1c(=O)c2c(ncn2[C@@H](C)C(=O)Nc2csc(-c3ccc(Cl)c(Cl)c3)n2)n(C)c1=O [Compound 20, (S)—N-(2-(3,4-dichlorophenyl)thiazol-4-yl)-2-(3-methyl-2,6-dioxo-1-(2-oxopropyl)-2,3-dihydro-1H-purin-7(6H)-yl)propanamide] yielded an IC50 of 2 nM.
C[C@@H](C(=O)Nc1cncc(-c2cnc(C(F)(F)F)nc2)n1)n1cnc2c1c(=O)n(CC#N)c(=O)n2C [Compound 22, (S)-2-(1-(cyanomethyl)-3-methyl-2,6-dioxo-2,3-dihydro-1H-purin-7(6H)-yl)-N-(6-(2-(trifluoromethyl)pyrimidin-5-yl)pyrazin-2-yl)propanamide] was tested, and the IC50 was 203 nM.
Cc1cc(Cn2c(=O)c3c(ncn3[C@@H](C)C(=O)Nc3cccc(-c4ccc(C(F)(F)F)cc4)n3)n(C)c2=O)no1 [Compound 23] was tested, and the IC50 was 5 nM.
Work on CC(C(=O)Nc1ccnc(-c2cnc(N3CC4CC4C3)nc2)n1)n1cnc2c1c(=O)n(CC#N)c(=O)n2C (centres unmarked) [Compound 24, N-(2′-(3-azabicyclo[3.1.0]hexan-3-yl)-2,5′-bipyrimidin-4-yl)-2-(1-(cyanomethyl)-3-methyl-2,6-dioxo-2,3-dihydro-1H-purin-7(6H)-yl)propanamide] yielded an IC50 of 10 nM.
CCC(=O)Cn1c(=O)c2c(ncn2[C@@H](C)C(=O)Nc2cccc(-c3cnc(N4CC5C(C4)C5(F)F)nc3)n2)n(C)c1=O (stereo partly drawn) [Compound 26, (2S)—N-(6-(2-(6,6-difluoro-3-azabicyclo[3.1.0]hexan-3-yl)pyrimidin-5-yl)pyridin-2-yl)-2-(3-methyl-2,6-dioxo-1-(2-oxobutyl)-2,3-dihydro-1H-purin-7(6H)-yl)propanamide] was tested, and the IC50 was 1 nM.
Work on CCN(CC)c1ncc(-c2cccc(NC(=O)[C@H](C)n3cnc4c3c(=O)n(Cc3cc(C)on3)c(=O)n4C)n2)cn1 [Compound 27, (S)—N-(6-(2-(diethylamino)pyrimidin-5-yl)pyridin-2-yl)-2-(3-methyl-1-((5-methylisoxazol-3-yl)methyl)-2,6-dioxo-2,3-dihydro-1H-purin-7(6H)-yl)propanamide] yielded an IC50 of 2 nM.
C[C@@H](C(=O)Nc1csc(-c2cnc(N3CCC[C@H]3C(F)(F)F)nc2)n1)n1cnc2c1c(=O)n(CC#N)c(=O)n2C [Compound 28, (S)-2-(1-(cyanomethyl)-3-methyl-2,6-dioxo-2,3-dihydro-1H-purin-7(6H)-yl)-N-(2-(2-((S)-2-(trifluoromethyl)pyrrolidin-1-yl)pyrimidin-5-yl)thiazol-4-yl)propanamide] was tested, and the IC50 was 1 nM.
For C[C@@H](C(=O)Nc1csc(-c2ccc(Cl)c(Cl)c2)n1)n1cnc2c1c(=O)n(CC#N)c(=O)n2C [Compound 29, (S)-2-(1-(cyanomethyl)-3-methyl-2,6-dioxo-2,3-dihydro-1H-purin-7(6H)-yl)-N-(2-(3,4-dichlorophenyl)thiazol-4-yl)propanamide], the IC50 was 1 nM.
C[C@@H](C(=O)Nc1cccc(-c2cnc(N3CC4C(C3)C4(F)F)nc2)n1)n1cnc2c1c(=O)n(CC#N)c(=O)n2C (stereo partly drawn) [Compound 30, (2S)-2-(1-(cyanomethyl)-3-methyl-2,6-dioxo-2,3-dihydro-1H-purin-7(6H)-yl)-N-(6-(2-(6,6-difluoro-3-azabicyclo[3.1.0]hexan-3-yl)pyrimidin-5-yl)pyridin-2-yl)propanamide] gave an IC50 of 3 nM.
With CC(=O)Cn1c(=O)c2c(ncn2[C@@H](C)C(=O)Nc2csc(-c3cnc(C(F)(F)F)nc3)n2)n(C)c1=O [Compound 31, (S)-2-(3-methyl-2,6-dioxo-1-(2-oxopropyl)-2,3-dihydro-1H-purin-7(6H)-yl)-N-(2-(2-(trifluoromethyl)pyrimidin-5-yl)thiazol-4-yl)propanamide] the IC50 was 16 nM.
Compound Cc1cc(Cn2c(=O)c3c(ncn3[C@@H](C)C(=O)Nc3csc(-c4cnc(C(F)(F)F)nc4)n3)n(C)c2=O)no1 [Compound 32, (S)-2-(3-methyl-1-((5-methylisoxazol-3-yl)methyl)-2,6-dioxo-2,3-dihydro-1H-purin-7(6H)-yl)-N-(2-(2-(trifluoromethyl)pyrimidin-5-yl)thiazol-4-yl)propanamide] has an IC50 of 3 nM.
In the case of CCC(=O)Cn1c(=O)c2c(ncn2[C@@H](C)C(=O)Nc2csc(-c3ccc(N4CC5CC5C4)nc3)n2)n(C)c1=O (some centres unmarked) [Compound 33], the IC50 is reported as 1 nM.

Source: US10221177B2 (HYDRA BIOSCIENCES, INC., priority 2014, dated 2019)
